We go through two compounds from paper PMC9318133 (International Journal of Molecular Sciences, 2022).

Read-outs that look alike come from different tables or passages of the source.

For assay [1], the target named is T1, mouse CB2 receptors (Mus musculus, UniProt P47936).
T1 construct: membranes from the mouse brain and spleen were used, respectively; from tissue; host or cells: mouse spleen membranes, CD-1 mice
The assay can be described thus: [3H]-CP-55,940 competition binding, mouse spleen membranes. The procedure: Following excision from mice, tissues were suspended in 50 mM Tris HCl, pH 7.4, at 4 °C. The mouse brain and spleen tissues were homogenized with a Polytron and subsequently centrifuged for 10 min at 2000× g. The resulting supernatants were filtered and centrifuged for 20 min at 40,000× g, and the pellets were used for competition binding experiments.
Competition binding experiments were carried out by incubating 0.5 nM [3H]-CP-55,940 (Perkin Elmer Life and Analytical Sciences, Waltham, MA, USA) and different concentrations of the tested compounds for 90 or 60 min at 30 °C for CB1 or CB2 receptors, respectively. […] Non-specific binding was determined in the presence of 1 μM WIN 55,212-2 [92]. Bound and free radioactivity were separated by filtering the assay mixture through Whatman GF/C glass fiber filters using a Brandel cell harvester (Brandel Instruments, Unterföhring, Germany). The filter-bound radioactivity was counted using a Packard Tri Carb 2810 TR scintillation counter (Perkin Elmer Life and Analytical Sciences, Waltham, MA, USA).
The protein concentration was determined according to a Bio-Rad method with bovine serum albumin as a reference standard. Inhibitory binding constants, Ki, were calculated from the IC50 values according to the Cheng and Prusoff equation:Ki = IC50/(1 + [C*]/KD*) where [C*] is the concentration of the radioligand and KD* its dissociation constant. […]

Assay [2] deals with T2, human CB1 receptors (Homo sapiens, UniProt P21554).
T2 construct: host or cells: CHO cells
T2 sequence (P21554 whole entry): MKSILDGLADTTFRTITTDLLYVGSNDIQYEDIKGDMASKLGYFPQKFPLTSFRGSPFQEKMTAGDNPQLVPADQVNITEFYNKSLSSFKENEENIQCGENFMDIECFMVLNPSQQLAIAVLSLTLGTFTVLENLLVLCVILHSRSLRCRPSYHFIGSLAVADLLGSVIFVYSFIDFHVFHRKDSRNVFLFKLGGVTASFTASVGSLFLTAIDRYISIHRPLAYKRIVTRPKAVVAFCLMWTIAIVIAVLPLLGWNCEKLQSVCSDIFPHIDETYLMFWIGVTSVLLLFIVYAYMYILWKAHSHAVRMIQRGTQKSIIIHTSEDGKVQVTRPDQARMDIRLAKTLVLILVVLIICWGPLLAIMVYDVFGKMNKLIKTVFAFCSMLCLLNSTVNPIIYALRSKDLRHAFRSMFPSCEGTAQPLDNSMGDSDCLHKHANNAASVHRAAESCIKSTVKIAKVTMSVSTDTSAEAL
The assay can be described thus: Cyclic AMP assay (forskolin-stimulated) in CHO cells transfected with human CB1 receptors. The class given is cell-based. The procedure: Chinese hamster ovarian (CHO) cells transfected with human CB1 or CB2 receptors (Perkin Elmer Life and Analytical Sciences, Melville, NY, USA) were grown adherently and maintained in Ham’s F12 containing 10% fetal bovine serum, penicillin (100 U/mL), streptomycin (100 µg/mL), and Geneticin (G418, 0.4 mg/mL) at 37 °C in 5% CO2/95% air. To obtain membranes, cells were washed with phosphate-buffered saline (PBS) and scraped off with ice-cold hypotonic buffer (5 mM Tris HCl, 2 mM EDTA, pH 7.4). The cell suspension was homogenized with a Polytron and then centrifuged for 30 min at 40,000× g. […]
The protein concentration was determined according to a Bio-Rad method with bovine serum albumin as a reference standard. Inhibitory binding constants, Ki, were calculated from the IC50 values according to the Cheng and Prusoff equation:Ki = IC50/(1 + [C*]/KD*) where [C*] is the concentration of the radioligand and KD* its dissociation constant. Functional experiments were analyzed by non-linear regression analysis using the equation for a sigmoid concentration–response curve (GraphPad Prism, San Diego, CA, USA). All the data are expressed as the mean ± SEM of three independent experiments.

Assay [3] has as its system CD-1 mice. Nature of the assay: Visual placing response test. It counts as in vivo, mouse.
Assay [4] has as its system CD-1 mice. Nature of the assay: Breath rate evaluation. It counts as in vivo, mouse.
The test system of assay [5] is CD-1 mice. Nature of the assay: Core (rectal) temperature evaluation. It counts as in vivo, mouse.
Assay [6] deals with T2, human CB1 receptors. Details: method as in PMID 27527584, PMID 25769232. The following applies: read-out: hCB1 CHO Cells IC50; cyclic AMP experiments; mean ± SEM; data elaborated from ref [15],[33]; cited from earlier work.
Assay [7] addresses T3, human CB2 receptors (Homo sapiens, UniProt P34972).
T3 construct: host or cells: CHO cells
Details: method as in PMID 27527584, PMID 25769232. Particulars: read-out: hCB2 CHO Cells IC50; cyclic AMP experiments; mean ± SEM; data elaborated from ref [15],[33]; cited from earlier work.

Assay [8] has as its system CD-1 mice. On the set-up: method as in PMID 25769232, PMID 25987201. The following applies: ED50 + SEM, data elaborated from ref [33],[34]; cited from earlier work.
For assay [9], the system named is CD-1 mice. On the set-up: method as in PMID 25769232, PMID 25987201. Particulars: ED50 + SEM, data elaborated from ref [33],[34]; cited from earlier work. The source holds these as a separate data set.
Assay [10] has as its system CD-1 mice. Details: method as in PMID 25769232, PMID 25987201. Particulars: ED50 + SEM, data elaborated from ref [33],[34]; cited from earlier work. The source holds these as a separate data set.
In assay [11] the test system is CD-1 mice. Details: method as in PMID 25769232, PMID 25987201. Particulars: ED50 + SEM, data elaborated from ref [33],[34]; cited from earlier work. The source holds these as a separate data set.
The mark [12] stands for this setting: 0.01–30 mg/kg i.p., monitored over 5 h.
Where [13] appears, read: Mus musculus, ip, mice, ED50 + SEM.

T1 sequence (P47936 whole entry): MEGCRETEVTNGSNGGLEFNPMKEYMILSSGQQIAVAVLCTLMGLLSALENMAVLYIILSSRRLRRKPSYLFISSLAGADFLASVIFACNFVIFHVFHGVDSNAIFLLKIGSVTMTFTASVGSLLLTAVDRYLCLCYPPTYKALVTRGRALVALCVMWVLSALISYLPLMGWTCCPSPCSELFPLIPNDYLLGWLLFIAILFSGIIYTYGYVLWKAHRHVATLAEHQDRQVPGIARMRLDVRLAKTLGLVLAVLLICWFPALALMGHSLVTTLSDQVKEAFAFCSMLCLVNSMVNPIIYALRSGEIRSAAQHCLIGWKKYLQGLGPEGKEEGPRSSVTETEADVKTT
T3 sequence (P34972 whole entry): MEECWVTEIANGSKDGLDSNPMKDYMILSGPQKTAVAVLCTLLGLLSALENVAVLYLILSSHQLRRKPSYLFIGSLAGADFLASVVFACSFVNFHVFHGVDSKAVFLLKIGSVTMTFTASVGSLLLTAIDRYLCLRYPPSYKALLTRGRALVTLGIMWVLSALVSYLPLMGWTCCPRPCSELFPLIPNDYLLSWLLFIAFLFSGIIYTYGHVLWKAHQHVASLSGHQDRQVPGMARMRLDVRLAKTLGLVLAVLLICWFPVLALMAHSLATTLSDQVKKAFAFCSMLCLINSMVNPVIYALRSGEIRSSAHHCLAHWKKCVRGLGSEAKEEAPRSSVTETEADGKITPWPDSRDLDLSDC

With `CCCCCn1cc(Cc2cccc3ccccc23)c2ccccc21` [JWH-175, 3-(1-naphthalenylmethyl)-1-pentyl-1H-indole], in assay [1], the inhibition constant Ki (as a rule, the equilibrium dissociation constant of an inhibitor or competing ligand from its target) is 487 ± 39 nM. In addition, half-maximal inhibition in assay [2] (IC50) required 72 ± 5 nM. In addition, the “effect on visual placing response” value in assay [3] (setting [12]) was “dose-dependently reduced the visual placing response”. Besides, the ED50 (usually the midpoint of the dose-response relation) in assay [3] (setting [13]) worked out at 5.2 ± 0.08 mg/kg; in assay [4] (setting [13]), 1.7 ± 0.15 mg/kg; in assay [5] (setting [13]), 5.6 ± 0.04 mg/kg. In addition, the “lowest dose tested with significant inhibitory effect on visual placing response” value in assay [3] (i.p.) is 0.01 mg/kg. Further, the “effect on breath rate” value in assay [4] (setting [12]) is listed as “dose-dependently reduced the breath rate”. Further, the “dose at which inhibitory effect on breath rate was significant” value in [4] (i.p., after 120 min, persisted up to 5 h) turned out to be 0.1 mg/kg. Moreover, in assay [5] (setting [12]), the “effect on core temperature” value is recorded as “reduced”.
In the case of `CCCCCn1cc(C(=O)c2cccc3ccccc23)c2ccccc21` [JWH-018, 1-naphthalenyl(1-pentyl-1H-indol-3-yl)-methanone], the IC50 (commonly the concentration that inhibits the measured activity by half) in assay [6] was 13.7 ± 1.04 nM; in assay [7] it was 11.6 ± 0.97 nM. Further, in assay [8], the “ED50 Visual Object” value was 0.32 ± 0.06 mg/kg. Also, the “ED50 Startle Reflex” value in assay [9] was 0.53 ± 0.05 mg/kg. Further, the “ED50 Tail Pinch” value in assay [10] is on record as 1.8 ± 0.11 mg/kg. Further, the “ED50 Drag Test” value in [11] was 2.4 ± 0.12 mg/kg.
